Experiments:
[1] = tested on: platelet aggregation (collagen); assay: Platelet aggregation inhibitory activity, collagen-induced (Born's turbidimetry, rabbit PRP); assay type: cell-based, male rabbit (NZW); conditions: Oryctolagus cuniculus, collagen 20 μg/ml final, 37° C.
Procedure: (§1) Pharmacological Experiment 1 Platelet aggregation inhibitory activity
(§2) (1) Preparation of platelet rich plasma (PRP):
(§3) The blood was collected from the carotid of a male rabbit without anesthesia (NZW species, body weight; 2-3 kg) with mixing thereof with 1/10 volume of citric acid. The blood thus obtained was separated and put into plastic test tubes (each about 7 ml), and centrifuged at 900 rpm for 15 minutes at room temperature to give a turbid supernatant as a platelet rich plasma (PRP). The residue from which PRP is separated was centrifuged at 3000 rpm for 10 minutes, and the supernatant was collected as a platelet poor plasma (PPP). The PRP was diluted with PPP so that the concentration thereof was adjusted to […], and used in the platelet aggregation inhibitory activity test.
(§4) (2) Method for platelet aggregation inhibitory activity test:
(§5) The platelet aggregation was tested according to Born's turbidimetry. That is, a test compound was dissolved in dimethylformamide, and the test compound solution (1 μl) thus obtained was put into a cuvette, and thereto was further added PRP (200 μl). Immediately thereafter, the cuvette was set into an apparatus for determining platelet aggregation activity, PAM-8T (manufactured by Mevanix Inc.), and the mixture was incubated at 37° C. Precisely three minutes thereafter, a solution of adenosine diphosphate (ADP, PA test ADP [MCM], purchased by MC Medical Ltd.) in physiological saline solution or a collagen solution (Collagenreagent Horm, purchased by MC Medical Ltd.) (20 μl) was added thereto. The final concentration of the ADP solution or the collagen solution was 7.5 μM or 20 μg/ml, respectively.
(§6) The maximum aggregation rate and the aggregation inhibitory rate were calculated by the following equations. [formula]
(§7) IC50, which is a concentration of the test compound being required to inhibit the platelet aggregation reaction by 50%, was determined from the aggregation inhibitory rates at two different concentrations of a test compound.

[2] = tested on: platelet aggregation (ADP); assay: Platelet aggregation inhibitory activity, ADP-induced (Born's turbidimetry, rabbit PRP); assay type: cell-based, male rabbit (NZW); conditions: Oryctolagus cuniculus, ADP 7.5 μM final, 37° C.
Procedure: as §1, §2, §3, §4, §5, §6, §7

[3] = molecular target: T1, cGMP-inhibited cAMP phosphodiesterase (PDE3) (Homo sapiens, UniProt Q14432); assay: cGMP-inhibited cAMP phosphodiesterase (PDE3) inhibitory activity; assay type: biochemical; conditions: 0.4 μM [8-3H]cAMP, pH 8.0, 30° C., 15 minutes; recombinant enzyme from Sf9; read-out: PDE inhibitory activity IC50
T1 construct: made in house; host or cells: insect cell Sf9, baculovirus expression system
T1 sequence (Q14432 whole entry): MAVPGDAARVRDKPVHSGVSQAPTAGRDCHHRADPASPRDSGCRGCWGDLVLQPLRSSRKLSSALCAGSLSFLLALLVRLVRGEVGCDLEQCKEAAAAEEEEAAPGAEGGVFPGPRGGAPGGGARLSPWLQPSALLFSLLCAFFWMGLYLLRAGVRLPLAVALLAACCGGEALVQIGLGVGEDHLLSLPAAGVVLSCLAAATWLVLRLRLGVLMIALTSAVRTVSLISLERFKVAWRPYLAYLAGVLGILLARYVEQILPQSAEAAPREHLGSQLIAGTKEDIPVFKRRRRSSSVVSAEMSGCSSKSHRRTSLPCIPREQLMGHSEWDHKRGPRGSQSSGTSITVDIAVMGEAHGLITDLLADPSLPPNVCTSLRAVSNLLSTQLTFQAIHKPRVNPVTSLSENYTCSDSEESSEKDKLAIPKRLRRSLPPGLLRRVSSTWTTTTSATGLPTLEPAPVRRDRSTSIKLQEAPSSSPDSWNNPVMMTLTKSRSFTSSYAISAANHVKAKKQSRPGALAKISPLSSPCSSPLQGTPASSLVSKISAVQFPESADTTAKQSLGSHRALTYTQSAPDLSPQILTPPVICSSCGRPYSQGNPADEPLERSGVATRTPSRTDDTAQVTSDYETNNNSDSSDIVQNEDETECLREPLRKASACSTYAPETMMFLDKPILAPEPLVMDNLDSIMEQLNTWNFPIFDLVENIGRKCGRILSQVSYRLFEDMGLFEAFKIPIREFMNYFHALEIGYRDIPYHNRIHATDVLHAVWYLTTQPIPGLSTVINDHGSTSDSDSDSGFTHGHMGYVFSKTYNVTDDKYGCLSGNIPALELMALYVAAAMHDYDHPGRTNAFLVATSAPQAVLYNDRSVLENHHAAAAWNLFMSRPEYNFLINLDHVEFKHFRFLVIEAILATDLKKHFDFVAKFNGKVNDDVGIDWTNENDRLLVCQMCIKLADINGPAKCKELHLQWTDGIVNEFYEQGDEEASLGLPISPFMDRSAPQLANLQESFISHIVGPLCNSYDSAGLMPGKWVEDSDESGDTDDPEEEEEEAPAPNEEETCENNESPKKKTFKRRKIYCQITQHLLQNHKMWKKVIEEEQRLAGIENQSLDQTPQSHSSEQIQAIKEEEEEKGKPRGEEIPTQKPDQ

[4] = tested on: death induced by pulmonary infarction in mice; assay: Antithrombotic activity: inhibition of death by collagen-induced pulmonary infarction in mice; assay type: in vivo, male ICR mice; conditions: Mus musculus, 1 h; 30 mg/kg oral, 10 minutes before i.v. collagen; lethality in an hour; read-out: Pulmonary infarction inhibitory activity
Description: Pharmacological Experiment 2 Antithrombotic activity
Antithrombotic activity of the test compounds was estimated by an inhibitory activity of the test compound by oral administration against death induced by pulmonary infarction in mice which was introduced by intravenous administration of collagen (pulmonary infarction inhibitory activity).
Male ICR mice (5-week old, body weight; about 25 g) was fasted overnight, and separated into groups (15 mice per each group) and numbered. A test compound solution, which was prepared by suspending a test compound in 1% hydroxypropylmethyl cellulose 2910 TC-5 (HPMC, manufactured by Shin-etsu Chemical Co., Ltd.), was orally administered to the mice, and 10 minutes thereafter, a collagen solution (the method for preparation thereof and a dose thereof are explained hereafter) was injected to the mice at the tail vein at the constant rate. The lethality of the mice was determined by the number of mice which were died in an hour after the administration of collagen solution. The antithrombotic activity of the test compound was estimated by the inhibitory rate (%) of the lethality of the mice. The collagen solution was prepared by dissolving collagen (Type III, manufactured by Sigma Chemical Ltd.) in 0.05 M acetic acid solution containing 2 mM calcium chloride and 5% glucose at 4° C. so that the final concentration of collagen was adjusted to 2.5 mg/ml, and then the pH value thereof was adjusted to pH 7.4 with sodium hydroxide the day before the experiment. The collagen solution was incubated with stirring at 37° C. for two hours, and then further stirred at room temperature overnight. Just before the experiment, the pH value of the collagen solution was adjusted again to pH 7.4. The amount of the collagen solution which was injected at the tail vein was previously determined so that the lethality by pulmonary infarction induced thereby became about 75%.

[5] = tested on: left common carotid artery injured by balloon; assay: Intima thickening inhibitory activity after balloon injury (3H-thymidine in carotid artery); assay type: in vivo, male SD rats; conditions: Rattus norvegicus; dose 30 mg/kg, oral
Procedure: Pharmacological Experiment 3 Intima thickening inhibitory activity
Male SD rats (6-week old) were separated into groups (8 rats per each group) and numbered. A test compound solution, which was prepared by suspending a test compound in 1% hydroxypropylmethyl cellulose 2910 TC-5 (HPMC, manufactured by Shin-etsu Chemical Co., Ltd.) was orally administered to the rats. In the control group, 1% HPMC solution was orally administered instead of the test compound solution. One or two hours thereafter, two french balloon catheters (manufactured by Baxter Travenol Inc.) were inserted into the left common carotid artery of the rats, and the artery was injured by abrading five times with a balloon. The day of balloon abrasion was considered as Day 0. On the following day (Day 1), a test compound was orally administered to the rats two times a day (in the morning and in the evening). On Day 2, 1.48 MBq/ml of ^3 H-thymidine (dose: 5 ml/kg, manufactured by NEN Research Products, Ltd.) was injected at the tail vein of the rats about one hour after the administration of the test compound so that the time after the balloon injury was fixed to the same in each rat. Precisely 45 minutes after the injection of ^3 H-thymidine at the tail veil, the common carotid artery of the rats was taken out.
In the test compound-treated group, only the left common carotid artery which was injured by balloon was taken out, and in the control group, both the left and right common carotid arteries were taken out. The common carotid artery thus obtained was cut to pieces of exact 1 cm long, and the unnecessary portions such as the outer membrane or the nerves were completely removed. The common carotid artery was put into a glass vial, and thereto was added a 0.5 N sodium hydroxide (0.5 ml), and the mixture was incubated at 37° C. overnight to be solubilized. The mixture was neutralized with a 5 N hydrochloric acid (0.05 ml), and thereto was further added an aqueous hydrogen peroxide solution (0.1 ml). Aquasol II (10 ml, manufactured by Du Pont Co.) was added thereto, and the mixture was well stirred and then allowed to stand for 30 minutes. The radioactivity of tritium in the mixture was counted by liquid scintillation counter. The intima thickening inhibitory activity of the test compound was calculated by the following equation. [formula] L (c): The amount of tritium in the left common carotid artery in the control group (dpm)
R (c): The amount of tritium in the right common carotid artery in the control group (dpm)
L: The amount of tritium in the left common carotid artery in the test compound-treated group (dpm)

| SMILES | IC50 [1] | IC50 [2] | IC50 [3] | inhibition in vivo at 30 mg/kg [4] | inhibition in vivo at 30 mg/kg [5] |
| --- | --- | --- | --- | --- | --- |
| CCC(O)CN(C(=O)NCCCOc1ccc2[nH]c(=O)ccc2c1)C1CCCCC1 (centres unmarked) [Ex. 10] | 300 nM | 400 nM | 24.3 nM | 74% | 34.2% |
| CN(CCCOc1ccc2[nH]c(=O)ccc2c1)C(=O)N(C)C1CCCCC1 [Ex. 12, 6-[3-(1,3-dimethyl-3-cyclohexylureido)propoxy]carbostyril] | 20500 nM | 31600 nM | 197 nM | 100% | 21.1% |
| O=C(NCCCOc1ccc2[nH]c(=O)ccc2c1)N(C1CC1)[C@@H]1CCCC[C@H]1OCCCO [Ex. 17, (R,R)-(-)-6-{3-[3-[trans-2-(3-hydroxypropoxy)cyclohexyl]-3-cyclopropylureido]propoxy}carbostyril] | 2390 nM | 140 nM | 60.8 nM | 100% | 16% |
| CN(NC(=O)NCCCOc1ccc2[nH]c(=O)ccc2c1)C1CCCCC1 [Ex. 28] | 100 nM | 110 nM | 0.826 nM | 100% | 27.8% |

Source: patent publication US6143763A, “Carbostyril derivatives” (D. Western Therapeutics Institiute, priority 1995, dated 2000)
